According to patent US7825263B2, “Nitrooxyderivatives of carvedilol and other beta blockers as antihypertensive” (Nicox S.A., priority 2003, dated 2010):

System: PC12 cells
Assay: Measurements of cGMP in rat PC12 cell line (cGMP accumulation, enzyme immunoassay)
Assay type: cell-based
Settings: for EC50: PC-12, 0.75 h
Procedure: Measurements of cGMP in Rat PC12 Cell Line
cGMP contributes to the function and interaction of several vascular cell types and its dysfunction is involved in major cardiovascular diseases such as hypertension, diabetic complications, atherosclerosis, and tissue infarction. Therefore the extent of cGMP formation elicited by the compounds of the inventions was evaluated in the rat pheochromocytoma (PC12) cell line.
Cells were maintained at 37° C. in DMEM medium enriched with 10% horse serum and 5% foetal bovine serum under 5% CO2 atmosphere. At the time of experiments the cells were washed once with Hank's Balanced Salt Solution (HBSS) supplemented with 0.05% ascorbic acid and preincubated in the same buffer for 10 min in a floating water bath. After the preincubation step, cells were exposed for additional 45 min to either control conditions or increasing concentrations of test compounds ranging from 0.1 to 25 μM, in the presence of the phosphodiesterase inhibitor, IBMX (100 μM) and the NO-independent activator of soluble guanylyl cyclase, YC-1 (20 μM). The reaction was terminated by the removal of the incubating buffer and consecutive addition of 100 μl of absolute ethanol. The organic extracts were then evaporated to dryness and the residues dissolved in aqueous buffer for quantitative determination of intracellular cGMP levels using the cGMP enzyme immunoassay kit.
The obtained results reported in Table 1 are expressed as EC50 (μM) and efficacy Emax (% of vehicle). As shown in the table the nitroderivatives of carvedilol induced a consistent increase of intracellular cGMP formation in PC12 cell line. Conversely, this effect was not induced by the parent compound.

[1] = 45 min exposure, 0.1 to 25 μM test compound, in presence of IBMX (100 μM) and YC-1 (20 μM)

| SMILES | EC50, cGMP accumulation in PC12 cells [1] | Emax (% of vehicle), cGMP accumulation in PC12 cells [1] | increase of intracellular cGMP formation in PC12 cell line (in words) (summary statement on Table 1) | EC50 [1] |
| --- | --- | --- | --- | --- |
| COc1ccccc1OCCNCC(O)COc1cccc2[nH]c3ccccc3c12 (centres unmarked) [Carvedilol] | Not effective | Not effective | not induced |  |
| COc1ccccc1OCCNCC(COc1cccc2[nH]c3ccccc3c12)OC(=O)c1ccc(CO[N+](=O)[O-])cc1 (centres unmarked) [Compound of example 1, 4-(Nitrooxymethyl)benzoic acid 1-(9H-carbazol-4-yloxy)-3-[[2-(2-methoxyphenoxy)ethyl]amino]-2-propanoate] |  | 480 % of vehicle |  | 2300 nM |
| COc1ccccc1OCCN(CC(O)COc1cccc2[nH]c3ccccc3c12)C(=O)c1ccc(CO[N+](=O)[O-])cc1 (centres unmarked) [Compound of example 3, 1-(9H-carbazol-4-yloxy)-3-[[2-(2-methoxyphenoxy)ethyl][(4-nitrooxymethyl)benzoyl]amino]-2-propanol] |  | 565 % of vehicle |  | 1800 nM |
| COc1ccccc1OCCN(CC(O)COc1cccc2[nH]c3ccccc3c12)C(=O)CCO[N+](=O)[O-] (centres unmarked) [Compound of example 4] |  | 395 % of vehicle |  | 1700 nM |
| COc1ccccc1OCCN(CC(O)COc1cccc2[nH]c3ccccc3c12)C(=O)CCCCCO[N+](=O)[O-] (centres unmarked) [Compound of example 5] |  | 322 % of vehicle |  | 600 nM |
